Test system: gastric acid secretion
Experiment: modified standard pylorus-ligated secretory testing procedure in the rat
Assay type: in vivo, Sprague-Dawley rats
Conditions: 50-100 mg/kg p.o., 1 hr. prior to ligation, 4 hrs. after ligation; for % Inhibition Gastric acid output: titration to pH 7, vs control 0.5% Methocel; for % Inhibition Volume of gastric secretion: vs control 0.5% Methocel
Excerpt: Such effect is evidenced using a modified standard pylorus-ligated secretory testing procedure in the rat. Sprague-Dawley rats, weighing 180-210 g and previously fasted for 24 hrs., were used. All compounds were given perorally as suspensions in 0.5% Methocel 1 hr. prior to pylorus ligation. Under light ether anesthesia, the rat stomach was ligated at the pylorus region. Four hrs. after ligation, the conscious rat was sacrificed by a chloroform overdose. The stomach was carefully excised and its content drained into a centrifuge tube. Samples were centrifuged to separate secretions from debris. Gastric fluid volume reading and determination of sample contamination, based on debris and sample color, was made. Titration was performed on a sample aliquot from 1 ml diluted to a volume of 5 ml using distilled water. The titrant used was 0.1 N NaOH. Total gastric acid output in the stomach was determined by titration to pH 7. A dose from 50-100 mg/kg p.o. of a compound was administered to a group of rats and its effect on the volume of gastric secretion and acid output compared to a control group receiving 0.5% Methocel p.o. The activity of each compound based on the degree of inhibition of gastric acid output is set forth in Table I.

SMILES | % Inhibition Gastric acid output | % Inhibition Volume of gastric secretion
CNC(=O)ON=C1CCOc2ccccc21 [I, 2,3-Dihydro-4H-1-benzopyran-4-one O-(Methylcarbamoyl) oxime] | 60.4% | 34.1%
CCNC(=O)ON=C1CCOc2ccc(OC)cc21 [II, 2,3-Dihydro-6-methoxy-4-H-1-benzopyran-4-one O-(Ethylcarbamoyl)-oxime] | 57.7% | 33.2%
CCNC(=O)ON=C1CCOc2ccccc21 [III, 2,3-Dihydro-4-H-1-Benzopyran-4-one O-(Ethylaminocarbonyl)oxime] | 79.7% | 61.8%
CNC(=O)ON=C1CCOc2ccc(OC)cc21 [IV, 2,3-Dihydro-6-methoxy-4H-1-benzopyran-4-one O-(Methylaminocarbonyl)oxime] | 45.5% | 35.3%
NC(=O)ON=C1CCOc2ccccc21 [IX, 2,3-Dihydro-4H-1-benzopyran-4-one O-(Aminocarbonyl)oxime] | 77.9% | 60.5%
CNC(=O)ON=C1CCOc2ccc(Cl)cc21 [V, 6-Chloro-2,3-dihydro-4H-1-benzopyran-4-one O-(Methylaminocarbonyl)oxime] | 40.0% | 55.2%
CNC(=O)ON=C1CCOc2ccc(N)cc21 [VI, 6-Amino-2,3-dihydro-4H-1-benzopyran-4-one O(Methylaminocarbonyl)oxime] | 55.8% | 64.4%
C=CCNC(=O)ON=C1CCOc2ccccc21 [VII, 2,3-Dihydro-4H-1-benzopyran-4-one O-[(2-Propenyl)aminocarbonyl]oxime] | 89.9% | 76.2%
CCCNC(=O)ON=C1CCOc2ccccc21 [VIII, 2,3-Dihydro-4H-1-benzopyran-4-one 0-(1-Propylaminocarbonyl)oxime] | 88.1% | 73.1%
